Measured values taken from patent US6096930A, “Herbicidal cyclohexane-1,3-dione derivatives and their preparation process” (Korea Research Institute of Chemical Technology, priority 1994, dated 2000).
Like-named read-outs stand apart in the source and are kept apart here.

How the values were obtained:
Assay in all cases: Herbicidal activity for paddy test
Assay type in all cases: in vivo
ECHOR = details: for pest or weed control at 2 g/ha: 0.002 kg/ha; for pest or weed control at 8 g/ha: 0.008 kg/ha; for pest or weed control at 31 g/ha: 0.031 kg/ha; for pest or weed control at 125 g/ha: 0.125 kg/ha; for pest or weed control at 500 g/ha: 0.500 kg/ha
From the text: (§1) The sterilized sandy loam soil is filled in test pot having a surface area of 348 cm^2 for upland test conditions or 115 cm^2 for paddy test species were planted in furrows.
(§2) The herbicidal activity data were taken visually by percent control, wherein 0 signifies no herbicidal effect and 100 signifies complete kill.

ORYSA = details: for plant injury at 2 g/ha: 0.002 kg/ha; for plant injury at 8 g/ha: 0.008 kg/ha; for plant injury at 31 g/ha: 0.031 kg/ha; for plant injury at 125 g/ha: 0.125 kg/ha; for plant injury at 500 g/ha: 0.500 kg/ha
From the text: as §1, §2

SAGPY = details: for pest or weed control at 2 g/ha: 0.002 kg/ha; for pest or weed control at 8 g/ha: 0.008 kg/ha; for pest or weed control at 31 g/ha: 0.031 kg/ha; for pest or weed control at 125 g/ha: 0.125 kg/ha; for pest or weed control at 500 g/ha: 0.500 kg/ha
From the text: as §1, §2

SCPJU = details: for pest or weed control at 2 g/ha: 0.002 kg/ha; for pest or weed control at 8 g/ha: 0.008 kg/ha; for pest or weed control at 31 g/ha: 0.031 kg/ha; for pest or weed control at 125 g/ha: 0.125 kg/ha; for pest or weed control at 500 g/ha: 0.500 kg/ha
From the text: as §1, §2

MOOVA = details: for pest or weed control at 2 g/ha: 0.002 kg/ha; for pest or weed control at 8 g/ha: 0.008 kg/ha; for pest or weed control at 31 g/ha: 0.031 kg/ha; for pest or weed control at 125 g/ha: 0.125 kg/ha; for pest or weed control at 500 g/ha: 0.500 kg/ha
From the text: as §1, §2

[1] = 3 Leaf, read-out: Herbicidal activity, ORYSA (3 Leaf)
[2] = seed, read-out: Herbicidal activity, ORYSA (seed)

| SMILES | pest or weed control at 2 g/ha (ECHOR) | pest or weed control at 8 g/ha (ECHOR) | pest or weed control at 31 g/ha (ECHOR) | pest or weed control at 125 g/ha (ECHOR) | pest or weed control at 500 g/ha (ECHOR) | plant injury at 2 g/ha (ORYSA; [1]) | plant injury at 8 g/ha (ORYSA; [1]) | plant injury at 31 g/ha (ORYSA; [1]) | plant injury at 125 g/ha (ORYSA; [1]) | plant injury at 500 g/ha (ORYSA; [1]) | plant injury at 2 g/ha (ORYSA; [2]) | plant injury at 8 g/ha (ORYSA; [2]) | plant injury at 31 g/ha (ORYSA; [2]) | plant injury at 125 g/ha (ORYSA; [2]) | plant injury at 500 g/ha (ORYSA; [2]) | pest or weed control at 2 g/ha (SAGPY) | pest or weed control at 8 g/ha (SAGPY) | pest or weed control at 31 g/ha (SAGPY) | pest or weed control at 125 g/ha (SAGPY) | pest or weed control at 500 g/ha (SAGPY) | other results |
| --- | --- | --- | --- | --- | --- | --- | --- | --- | --- | --- | --- | --- | --- | --- | --- | --- | --- | --- | --- | --- | --- |
| C=CCON=C(CC)C1=C(O)CC(c2c(C)c(C)c3c(c2C)CC(C)(C)C3)CC1=O (stereo not drawn) [Compound 3, 5-(2,2,4,6,7-Pentamethylindan-5-yl)-2-[1-(allyloxyimino)propyl]-3-hydroxycyclohex-2-en-1-one] | 0% | 100% | 100% | 100% | 100% | 0% | 0% | 0% | 10% | 100% | 0% | 10% | 100% | 100% | 100% | 0% | 0% | 0% | 0% | 0% | pest or weed control at 2 g/ha (SCPJU): 0%; pest or weed control at 8 g/ha (SCPJU): 0%; pest or weed control at 31 g/ha (SCPJU): 0%; pest or weed control at 125 g/ha (SCPJU): 0%; pest or weed control at 500 g/ha (SCPJU): 0%; pest or weed control at 2 g/ha (MOOVA): 0%; pest or weed control at 8 g/ha (MOOVA): 0%; pest or weed control at 31 g/ha (MOOVA): 0%; pest or weed control at 125 g/ha (MOOVA): 0%; pest or weed control at 500 g/ha (MOOVA): 0% |
| C=C(Cl)CON=C(CC)C1=C(O)CC(c2c(C)c(C)c3c(c2C)CC(C)(CC)C3)CC1=O (stereo not drawn) [Compound 15] | 0% | 30% | 30% | 100% | 100% | 0% | 0% | 0% | 0% | 30% | 0% | 0% | 0% | 40% | 100% | 0% | 0% | 0% | 0% | 0% | pest or weed control at 2 g/ha (SCPJU): 0%; pest or weed control at 8 g/ha (SCPJU): 0%; pest or weed control at 31 g/ha (SCPJU): 0%; pest or weed control at 125 g/ha (SCPJU): 0%; pest or weed control at 500 g/ha (SCPJU): 0%; pest or weed control at 2 g/ha (MOOVA): 0%; pest or weed control at 8 g/ha (MOOVA): 0%; pest or weed control at 31 g/ha (MOOVA): 0%; pest or weed control at 125 g/ha (MOOVA): 0%; pest or weed control at 500 g/ha (MOOVA): 30% |
| CCC(=NOCC=CCl)C1=C(O)CC(c2c(C)c(C)c3c(c2C)CC(C)(C)C3)CC1=O (stereo not drawn) [Compound 4] | 0% | 100% | 100% | 100% | 100% | 0% | 0% | 0% | 10% | 40% | 0% | 0% | 100% | 100% | 100% | 0% | 0% | 0% | 0% | 50% | pest or weed control at 2 g/ha (SCPJU): 0%; pest or weed control at 8 g/ha (SCPJU): 0%; pest or weed control at 31 g/ha (SCPJU): 0%; pest or weed control at 125 g/ha (SCPJU): 0%; pest or weed control at 500 g/ha (SCPJU): 0%; pest or weed control at 2 g/ha (MOOVA): 0%; pest or weed control at 8 g/ha (MOOVA): 0%; pest or weed control at 31 g/ha (MOOVA): 0%; pest or weed control at 125 g/ha (MOOVA): 0%; pest or weed control at 500 g/ha (MOOVA): 0% |
| CCC(=NOC)C1=C(O)CC(c2c(C)c(C)c3c(c2C)CC(C)(CC)C3)CC1=O (stereo not drawn) [Compound 11] | 0% | 30% | 70% | 100% | 100% | 0% | 0% | 0% | 30% | 80% | 0% | 0% | 30% | 100% | 100% | 0% | 0% | 0% | 0% | 0% | pest or weed control at 2 g/ha (SCPJU): 0%; pest or weed control at 8 g/ha (SCPJU): 0%; pest or weed control at 31 g/ha (SCPJU): 0%; pest or weed control at 125 g/ha (SCPJU): 0%; pest or weed control at 500 g/ha (SCPJU): 0%; pest or weed control at 2 g/ha (MOOVA): 0%; pest or weed control at 8 g/ha (MOOVA): 0%; pest or weed control at 31 g/ha (MOOVA): 0%; pest or weed control at 125 g/ha (MOOVA): 30%; pest or weed control at 500 g/ha (MOOVA): 50% |
| CCCC(=NOCC)C1=C(O)CC(c2c(C)c3c(c(C)c2Cl)CC(C)(C)C3)CC1=O (stereo not drawn) [Compound 26, 5-(6-Chloro-2,2,4,7-tetramethylindan-5-yl)-2-[1-(ethoxyimino)butyl]-3-hydroxycyclohex-2-en-1-one] | 0% | 0% | 100% | 100% | 100% | 0% | 0% | 0% | 0% | 30% | 0% | 0% | 20% | 100% | 100% | 0% | 0% | 0% | 0% | 0% | pest or weed control at 2 g/ha (SCPJU): 0%; pest or weed control at 8 g/ha (SCPJU): 0%; pest or weed control at 31 g/ha (SCPJU): 0%; pest or weed control at 125 g/ha (SCPJU): 0%; pest or weed control at 500 g/ha (SCPJU): 40%; pest or weed control at 2 g/ha (MOOVA): 0%; pest or weed control at 8 g/ha (MOOVA): 0%; pest or weed control at 31 g/ha (MOOVA): 0%; pest or weed control at 125 g/ha (MOOVA): 0%; pest or weed control at 500 g/ha (MOOVA): 0% |
